# Test results: patent US10633339B2, “Tricyclic sulfone compound as a ROR gamma modulator” (BRISTOL-MYERS SQUIBB COMPANY, priority 2018, dated 2020)
# Tests used:
# [1] = Glutathione conjugate formation in rat liver cytosol incubations; assay type: in vitro ADME
# Method: (§1) Assay for Glutathione Conjugate formation in Rat or Human Cytosol Incubations Compound A and Compound 1 were incubated at a concentration of 10 μM with rat or human liver cytosol (3-5 mg/mL) (male Sprague-Dawley rat liver cytosol, lot BIM, n=100 purchased from Bioreclamation IVT, or mixed gender pool, lot 452115, n=150 purchased from Corning) in 1 mL of potassium phosphate buffer (50 mM, pH 8.5). The reactions (n=2, total volume=1000 μL) were initiated by the addition of glutathione (GSH) (5 mM) and incubated at 37° C. in a thermomixer. At 0 and 60 min, aliquots (100 μL) of the reaction mixtures were collected, and reactions were terminated by adding two volumes of acetonitrile. Proteins were then removed using a Millipore Sigma (Massachusetts, BA) Multiscreen Solvinert filter plate, by centrifugation (Eppendorf 5810 R, Hamburg, Germany) at 2000 rpm for 5 min. The filtrate was collected in a 96-well plate and was analyzed by high resolution Velos LTQ-Orbitrap (LC-UV/MS) system. UV absorbance was collected from 220-600 nm. […] The degrees of formation of GSH conjugates from the two compounds is shown below. Entries represent UV peak areas calculated relative to the parent compound at 260-280 nm. Data in parentheses represent the averages of the two experiments.
# [2] = Glutathione conjugate formation in human liver cytosol incubations; assay type: in vitro ADME; conditions: 10 μM compound, 5 mM GSH, 37° C., 60 min; UV peak area relative to parent at 260-280 nm; n=2
# Method: as §1
smiles,measurement,setting,value
"C[C@H]1C[C@H](C(=O)O)CC[C@H]1C(=O)N1CC[C@@]2(S(=O)(=O)c3ccccc3)c3cc(F)c(C(F)(C(F)(F)F)C(F)(F)F)cc3CC[C@@H]12 [Compound 1, (1R,3S,4R)-4-((3aR,9bR)-8-fluoro-7-(perfluoropropan-2-yl)-9b-(phenylsulfonyl)-2,3,3a,4,5,9b-hexahydro-1H-benzo[e]indole-3-carbonyl)-3-methylcyclohexane-1-carboxylic acid]","GSH conjugate, Rat Cytosol UV Area (%), individual experiments","[1]; 10 μM compound, 5 mM GSH, 37° C., 60 min, UV peak area relative to parent at 260-280 nm, n=2",not detected
same,GSH adduct formation (statement in words),"[1]; based on in vitro experiments (rat or human cytosol, not given)",did not form a GSH adduct
same,"GSH conjugate, Human Cytosol UV Area (%), individual experiments",[2],not detected
